Reference: patent US9956268B2, “Neuropeptide Y treatment of autoimmune disease” (priority 2012, dated 2018)

How the values were obtained:
[1] = system: innate immune cytokines IL-1β or TNF-α; details: oral, recent EAE experiments; cited from earlier work
[2] = system: CNS lymphocytes of recipients stimulated with MOG peptide 35-55; assay: Cytokine secretion, CNS lymphocytes of recipients of donor cells; assay type: in vivo, B6 mice
Protocol: (§1) Thirty days after inoculation and after peak score of clinical attack, all spleens from each treatment group were aseptically removed, single cell suspensions prepared, and red cell lysis performed by adding 2-3 ml sterile water to single cells for 5 seconds, and once the solution became transparent, adding AIM-V media to a 50 ml tube. Splenocytes from grouped saline (mock) fed, 1 μg or 10 μg neuropeptide Y fed mice were re-stimulated with MOG peptide 35-55 at a final concentration of 10 μg/ml for 48 hours in serum free medium (AIM-V medium, Gibco BRL, Grand Island, N.Y.) with 2×10^5 cells/[…] in triplicate in 96 well U-bottomed plates in a humidified 5% CO2/95% air incubator at 37° C. Following incubation, cells were collected, washed twice in PBS, and viability determined by standard Trypan blue exclusion. Viable concentrations were adjusted to 10^7 cells/0.5 ml Dulbecco's PBS immediately prior to i.p. injection into active MOG peptide 35-55 immunized recipient mice during ongoing disease (˜day 17 post immunization). Following administration of neuropeptide Y or adoptive transfer, clinical outcome is measured by comparing the difference between group mean active treatment and placebo group scores from day 17-30 post immunization.
(§2) Spleens and spinal cords (CNS) from each treatment group were aseptically removed and single cell suspensions prepared. In spinal cords, whole cords were passed through a cell strainer for CNS lymphocytes (B & D, Franklin Lakes, N.J.) and spun at 600 rpm several times to separate lymphocytes from CNS tissue. Splenocytes and cord lymphocytes from grouped saline fed or 10 mcg NPY fed mice were stimulated with 10 mcg MOG peptide 35-55×48 hours as previously described (5, 6). Murine cytokine responses were examined using a customized RayBio Mouse Cytokine Inflammatory Antibody Array including innate cytokine IL-1β and TNF-α, IL-17 (Teff), Th1-like (IL-2, IFN-γ), Th2-like cytokines (IL-4, IL-10, IL-13) and IL-12p70 using the RayBioantibody array Analysis tool application (RayBiotech, Inc, Norcross, Ga.). Results were grouped from mice fed saline or mice fed with NPY from grouped samples of two separate experiments (each sample performed in duplicate) and expressed as pg/ml±SEM (student t-test).

[3] = system: experimental autoimmune encephalomyelitis; details: parenteral, mice; cited from earlier work
[4] = Toxicity on extended oral administration; assay type: in vivo; details: orally administered to mice over an extended time period
[5] = system: CD4+CD25+FoxP3+ Treg; assay: Phenotypic analysis (FACS) of Treg frequency; assay type: in vivo, B6 mice; details: data not shown
Protocol: CD25 and FOXP3 expression by CD3+CD4+ lymphocytes was analyzed using the Beckman Coulter 10-Color Gallios Flow Cytometer and mouse regulatory T Cell Staining Kit with PE Foxp3 FJK-16s, FITC CD4, APC CD25 (eBioscience, San Diego, Calif.) following the manufacturer's instructions.

[6] = system: CNS lymphocytes stimulated with MOG peptide 35-55; assay: Cytokine secretion, MOG re-stimulated CNS (spinal cord) lymphocytes of fed mice; assay type: in vivo, B6 mice
Protocol: as §2

[7] = system: MOG peptide 35-55 immunized B6 mice (experimental autoimmune encephalomyelitis); assay: Active EAE, ingested neuropeptide Y, clinical score; assay type: in vivo; details: vs placebo, p<0.001 ANOVA
[8] = system: splenocytes of recipients stimulated with MOG peptide 35-55; assay: Cytokine secretion, splenic lymphocytes of recipients of donor cells; assay type: in vivo, B6 mice
Protocol: as §1, §2

[9] = system: spinal cords of MOG peptide 35-55 immunized B6 mice; assay: Spinal cord histology, inflammatory foci, actively fed mice; assay type: in vivo; details: thirty days following immunization, mock fed 11.6±0.5
Protocol: Following sacrifice, spinal cords were removed and immersion fixed in 10% neutral buffered formalin for a minimum of two weeks. After fixation, cords were sectioned in entirety in the horizontal plane at approximately 3 mm intervals and processed to paraffin. Paraffin blocks were sectioned at 6-8 microns, and step sections were stained with hematoxylin and eosin and examined by light microscopy. Cord sections were evaluated independently for foci of inflammation by a blinded observer (SAB), without knowledge of the treatment status of the mice prior to sacrifice. Spinal cord tissue was sampled in an identical fashion for each animal and numbers of inflammatory foci per high-powered field (HPF) (>20 perivascular lymphocytes) in the parenchyma were counted.

[10] = system: active MOG peptide 35-55 immunized recipient mice; assay: Adoptive transfer of splenocytes from neuropeptide Y fed donors, clinical score of recipients; assay type: in vivo, B6 mice; details: placebo donors maximum 2.3
[11] = system: spinal cords of recipient mice; assay: Spinal cord histology, inflammatory foci, recipients of adoptively transferred cells; assay type: in vivo, B6 mice; details: thirteen days following adoptive transfer, placebo donors 7.48±0.28
Protocol: as §1, with “Viable concentrations were adjusted to 10^7 cells/0.5 ml Dulbecco's PBS immediately prior to i.p. injection into active MOG peptide 35-55 immunized recipient mice during ongoing disease (˜day 17 post immunization).” left out
Following sacrifice, spinal cords were removed and immersion fixed in 10% neutral buffered formalin for a minimum of two weeks. […] Cord sections were evaluated independently for foci of inflammation by a blinded observer (SAB), without knowledge of the treatment status of the mice prior to sacrifice. […]

[12] = system: actively immunized recipients (ongoing disease); assay: Adoptive transfer of in vitro neuropeptide Y treated MOG restimulated activated macrophages; assay type: in vivo; details: preliminary experiments
[13] = system: splenic lymphocytes stimulated with MOG peptide 35-55; assay: Cytokine secretion, MOG re-stimulated splenic lymphocytes of fed mice; assay type: in vivo, B6 mice
Protocol: as §2

[14] = CNS lymphocytes of recipients of fed donor cells vs mock
[15] = CNS lymphocytes of recipients, 10 mcg fed group vs mock
[16] = splenic lymphocytes of recipients of fed donor cells vs mock
[17] = both fed groups (1 & 10 mcg) vs mock fed

Adrenocorticotropin hormone (SYSMEHFRWGKPVGKKRRPVKVYPNGAEDESAEAFPLEF; Corticotropin; UniProt P01189 138-176, looked up) [ACTH]
reduction of innate immune cytokines IL-1β or TNF-α [1]: no reduction

Neuropeptide Y
IL-1β level [2, 14]: significant decreases
IL-17 (Teff) level [2, 14]: significant decreases
IL-12 level ([2]; CNS lymphocytes of recipients of fed donor cells vs mock, p<0.03 (FIG. 8 legend)): decreased
MOG induced IL-10 production ([2]; CNS lymphocytes of recipients, 1 mcg fed group vs mock): increased
IFN-γ level [2, 15]: significant decreases
IL-2 level [2, 15]: significant decreases
TNF-α level [2, 15]: significant decreases
MOG induced IL-13 production ([2]; CNS lymphocytes of recipients, both dosed groups vs mock): increased
induction of experimental autoimmune encephalomyelitis [3]: significantly inhibits
toxicity [4]: no detectable toxicity
CD4+CD25+FoxP3+ cell frequency ([5]; actively fed mice vs mock fed): no significant increase
CD4+CD25+FoxP3+ cell frequency ([5]; recipients of actively fed donor cells vs mock): no significant increase
MOG induced IL-13 production ([6]; dosed vs mock dosed): increased
IFN-γ level ([6]; fed vs mock fed): significant decreases
IL-1β level ([6]; fed vs mock fed): significant decreases
IL-2 level ([6]; fed vs mock fed): significant decreases
IL-12 level ([6]; fed vs mock fed): significant decreases
IL-17 (Teff) level ([6]; fed vs mock fed): significant decreases
TNF-α level ([6]; fed vs mock fed): significant decreases
group clinical score ([7]; 1 mcg fed (gavage) from day 17, days 17-30 post immunization): significant decreases in group clinical scores
group clinical score ([7]; 10 mcg fed (gavage) from day 17, days 17-30 post immunization): significant decreases in group clinical scores
IFN-γ level [8, 16]: significant decreases
IL-1β level [8, 16]: significant decreases
IL-12 level [8, 16]: significant decreases
IL-17 (Teff) level [8, 16]: significant decreases
MOG induced IL-13 production [8, 16]: increased
TNF-α level [8, 16]: significant decreases
IL-2 level ([8]; splenic lymphocytes of recipients, 10 mcg fed donor cells vs mock): significant decreases
mean group inflammatory score (inflammatory foci) ([9]; 1 mcg fed group): 6.4±0.16
mean group inflammatory score (inflammatory foci) ([9]; 10 mcg fed group): 5.55±0.28
group clinical score at day 30 ([10]; recipients of donor splenocytes from 1 mcg fed mice): 1.4
group clinical score at day 30 ([10]; recipients of donor splenocytes from 10 mcg fed mice): 0.88
mean group inflammatory score (CNS inflammatory foci) ([11]; recipients of 1 mcg fed donors): 4.87±0.22
mean group inflammatory score (CNS inflammatory foci) ([11]; recipients of 10 mcg fed donors): 5.91±0.22
ongoing disease after adoptive transfer [12]: robust inhibition
IL-12p70 level ([13]; 10 mcg dosed vs mock fed): decreased
TNF-α level ([13]; 10 mcg dosed vs mock fed): decreased
IFN-γ level [13, 17]: significant decreases
IL-1β level [13, 17]: significant decreases
IL-2 level [13, 17]: significant decreases
MOG induced IL-4 production ([13]; dosed vs mock dosed): increased
MOG induced IL-10 production ([13]; dosed vs mock dosed): increased
MOG induced IL-13 production ([13]; dosed vs mock dosed): increased
